Test results reported in the NIST ThermoML archive (doi:10.1016/j.fluid.2018.07.028).
± gives the expanded uncertainty stated by the source.

Test: activity coefficient (dimensionless); of the first substance listed, at infinite dilution; xn = mol fraction of the nth substance listed
Details: 101.33 kPa, Liquid, Chromatography, x1 = 0

CCCC=O [butanal] + CCCC[P+](CCCC)(CCCC)CCCC.O=S(=O)([N-]S(=O)(=O)C(F)(F)F)C(F)(F)F
activity coefficient (358.15 K): 0.669 ± 0.045
activity coefficient (368.15 K): 0.699 ± 0.047
activity coefficient (378.15 K): 0.729 ± 0.048
activity coefficient (388.15 K): 0.758 ± 0.05
activity coefficient (398.15 K): 0.787 ± 0.051
activity coefficient (408.15 K): 0.817 ± 0.053

CCOC(C)=O [ethyl acetate] + CCCC[P+](CCCC)(CCCC)CCCC.O=S(=O)([N-]S(=O)(=O)C(F)(F)F)C(F)(F)F
activity coefficient (358.15 K): 0.835 ± 0.054
activity coefficient (368.15 K): 0.869 ± 0.056
activity coefficient (378.15 K): 0.905 ± 0.057
activity coefficient (388.15 K): 0.939 ± 0.059
activity coefficient (398.15 K): 0.975 ± 0.061
activity coefficient (408.15 K): 1.01 ± 0.063

C#CCCCC [1-hexyne] + CCCC[P+](CCCC)(CCCC)CCCC.O=S(=O)([N-]S(=O)(=O)C(F)(F)F)C(F)(F)F
activity coefficient (358.15 K): 1.88 ± 0.13
activity coefficient (368.15 K): 1.94 ± 0.13
activity coefficient (378.15 K): 2 ± 0.14
activity coefficient (388.15 K): 2.06 ± 0.14
activity coefficient (398.15 K): 2.11 ± 0.14
activity coefficient (408.15 K): 2.17 ± 0.15

Cc1cccc(C)c1 [1,3-dimethylbenzene] + CCCC[P+](CCCC)(CCCC)CCCC.O=S(=O)([N-]S(=O)(=O)C(F)(F)F)C(F)(F)F
activity coefficient (358.15 K): 1.53 ± 0.1
activity coefficient (368.15 K): 1.58 ± 0.1
activity coefficient (378.15 K): 1.63 ± 0.11
activity coefficient (388.15 K): 1.68 ± 0.11
activity coefficient (398.15 K): 1.72 ± 0.12
activity coefficient (408.15 K): 1.77 ± 0.12
